Laboratory results taken from patent US11136313B2, “Compounds, compositions, and methods for modulating CFTR” (Proteostasis Therapeutics, Inc., priority 2015, dated 2021).

target: T1, ΔF508-CFTR (Homo sapiens, UniProt P13569, DEL508-508); assay: hBE equivalent current (Ieq) assay: AUC of equivalent chloride current after forskolin/VX-770 in primary lung epithelial cells homozygous for ΔF508; format: cell-based; conditions: relative to CFTR amplifier (Compound A)+VX-809 (3 uM), compound at 10 uM and Compound A at 3 uM, 24 h treatment
T1 construct: Primary lung epithelial cells homozygous for the Cystic Fibrosis-causing ΔF508 mutation were differentiated for a minimum of 4 weeks; endogenous in cells; host or cells: primary lung epithelial cells (hBE) homozygous for ΔF508, differentiated at an air-liquid interface
Procedure: ii. hBE Equivalent Current (Ieq) Assay
Primary lung epithelial cells homozygous for the Cystic Fibrosis-causing ΔF508 mutation were differentiated for a minimum of 4 weeks in an air-liquid interface on Costar 24 well HTS filter plates prior to the equivalent current (Ieq) measurements. Cells were apically mucus-washed for 30 minutes 24 h prior to treatment with compounds. The basolateral media was removed and replaced with media containing the compound of interest diluted to its final concentration from DMSO stocks. Treated cells were incubated at 37° C. and 5% CO2 for 24 hours. At the end of the treatment period, the media was changed to the Ieq experimental solution for 2 hours before the experiment and plates are maintained in a CO2-free incubator during this period. The plates containing the cells were then placed in pre-warmed heating blocks at 36° C.±0.5 for 15 minutes before measurements are taken. The transepithelial voltage (VT) and conductance (GT) were measured using a custom 24 channel current clamp (TECC-24) with 24 well electrode manifold. The Ieq assay measurements were made following additions with standardized time periods: • 1. The baseline VT and GT values were measured for approximately 20 minutes. • 2. Benzamil was added to block ENaC for 15 minutes. • 3. Forskolin plus VX-770 were added to maximally activate ΔF508-CFTR for 27 minutes. • 4. Bumetanide was added to inhibit the NaK2Cl cotransporter and shut-off secretion of chloride.
The activity data captured was the area under the curve (AUC) for the traces of the equivalent chloride current. The AUC was collected from the time of the forskolin/VX-770 addition until the inhibition by bumetanide addition. Correction in response to compound treatment was scored as the increase in the AUC for compound-treated samples over that of vehicle-treated samples.
(+ indicates activity<50% of an CFTR amplifier (Compound A)+VX-809 (3 uM) with compound at 10 uM and Compound A at 3 uM; ++ indicates activity>50% of CFTR amplifier+VX-809 (3 uM) with compound at 10 uM and Compound A at 3 uM.

T1 sequence (P13569 with tags, fused parts or gaps DEL508-508): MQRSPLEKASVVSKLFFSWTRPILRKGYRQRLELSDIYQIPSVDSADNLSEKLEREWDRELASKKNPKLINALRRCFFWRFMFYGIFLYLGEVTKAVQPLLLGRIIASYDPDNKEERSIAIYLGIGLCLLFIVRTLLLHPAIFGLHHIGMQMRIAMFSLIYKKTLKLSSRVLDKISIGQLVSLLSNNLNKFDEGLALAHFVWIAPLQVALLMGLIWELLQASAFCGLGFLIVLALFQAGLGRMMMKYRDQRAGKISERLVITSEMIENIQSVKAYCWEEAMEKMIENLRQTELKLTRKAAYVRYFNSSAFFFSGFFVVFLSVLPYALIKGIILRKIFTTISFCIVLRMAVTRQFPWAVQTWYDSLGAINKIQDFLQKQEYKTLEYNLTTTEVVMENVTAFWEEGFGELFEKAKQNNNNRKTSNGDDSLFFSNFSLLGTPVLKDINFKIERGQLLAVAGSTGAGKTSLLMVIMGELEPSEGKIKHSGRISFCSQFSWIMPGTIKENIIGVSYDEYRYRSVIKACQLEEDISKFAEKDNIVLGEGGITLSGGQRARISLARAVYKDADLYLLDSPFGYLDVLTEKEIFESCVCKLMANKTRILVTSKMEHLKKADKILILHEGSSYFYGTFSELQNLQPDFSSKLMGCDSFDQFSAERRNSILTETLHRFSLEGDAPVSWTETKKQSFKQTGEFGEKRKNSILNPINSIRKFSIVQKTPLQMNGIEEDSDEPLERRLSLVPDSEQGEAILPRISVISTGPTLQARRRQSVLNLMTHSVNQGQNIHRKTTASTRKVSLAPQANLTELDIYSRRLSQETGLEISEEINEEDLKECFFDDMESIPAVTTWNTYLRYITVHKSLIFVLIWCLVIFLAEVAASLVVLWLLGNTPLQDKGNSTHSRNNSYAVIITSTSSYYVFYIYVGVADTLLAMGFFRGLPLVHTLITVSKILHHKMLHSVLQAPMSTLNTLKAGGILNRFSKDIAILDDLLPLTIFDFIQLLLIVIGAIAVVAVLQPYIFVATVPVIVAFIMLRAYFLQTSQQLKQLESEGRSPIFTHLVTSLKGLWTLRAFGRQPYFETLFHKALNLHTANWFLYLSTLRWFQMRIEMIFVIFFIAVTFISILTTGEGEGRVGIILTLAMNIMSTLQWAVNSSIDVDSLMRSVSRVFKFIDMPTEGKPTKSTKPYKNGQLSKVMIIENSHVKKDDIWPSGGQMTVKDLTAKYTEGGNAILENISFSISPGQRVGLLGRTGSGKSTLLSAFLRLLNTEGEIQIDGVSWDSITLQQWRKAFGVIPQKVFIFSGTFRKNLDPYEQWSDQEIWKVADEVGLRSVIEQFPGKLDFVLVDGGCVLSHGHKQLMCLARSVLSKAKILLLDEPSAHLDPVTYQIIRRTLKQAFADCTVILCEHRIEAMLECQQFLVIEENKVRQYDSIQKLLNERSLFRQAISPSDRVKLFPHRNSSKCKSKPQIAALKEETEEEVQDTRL

Row | SMILES | Activity
1 | CCc1ccc(OC(CC)c2ccccc2)c2c(C(=O)O)cc(-c3csc4ccccc34)nc12 (stereo in doubt) [Compound 185, 2-(1-Benzothiophen-3-yl)-8-ethyl-5-[(1S)-1-phenylpropoxy]quinoline-4-carboxylic acid] | ++ (activity>50% of CFTR amplifier+VX-809 (3 uM) with compound at 10 uM and Compound A at 3 uM)
2 | Cc1cc(Cl)cc2c(C(=O)O)cc(-c3cc4ccccc4s3)nc12 [Compound 1] | + (activity<50% of an CFTR amplifier (Compound A)+VX-809 (3 uM) with compound at 10 uM and Compound A at 3 uM)
3 | Cc1cc(C)c2nc(-c3nc4ccccc4s3)cc(C(=O)O)c2c1 [Compound 2, 2-(1,3-Benzothiazol-2-yl)-6,8-dimethylquinoline-4-carboxylic Acid] | + (activity<50% of an CFTR amplifier (Compound A)+VX-809 (3 uM) with compound at 10 uM and Compound A at 3 uM)
4 | Cc1cc(C)c2nc(-c3nc4ccccc4o3)cc(C(=O)O)c2c1 [Compound 3, 2-(1,3-Benzoxazol-2-yl)-6,8-dimethylquinoline-4-carboxylic acid] | + (activity<50% of an CFTR amplifier (Compound A)+VX-809 (3 uM) with compound at 10 uM and Compound A at 3 uM)
5 | Cc1cc(C)c2nc(-c3cc4ccccc4s3)nc(C(=O)O)c2c1 [Compound 4, 2-(1-Benzothiophen-2-yl)-6,8-dimethylquinazoline-4-carboxylic Acid] | + (activity<50% of an CFTR amplifier (Compound A)+VX-809 (3 uM) with compound at 10 uM and Compound A at 3 uM)
6 | Cc1cc(C)c2nc(-c3c(C)oc4ccccc34)cc(C(=O)O)c2c1 [Compound 5, 6,8-Dimethyl-2-(2-methyl-1-benzofuran-3-yl)quinoline-4-carboxylic acid] | + (activity<50% of an CFTR amplifier (Compound A)+VX-809 (3 uM) with compound at 10 uM and Compound A at 3 uM)
7 | Cc1cc(C)c2nc(-c3cc4ccccc4o3)cc(C(=O)O)c2c1 [Compound 6, 2-(1-Benzofuran-2-yl)-6,8-dimethylquinoline-4-carboxylic acid] | + (activity<50% of an CFTR amplifier (Compound A)+VX-809 (3 uM) with compound at 10 uM and Compound A at 3 uM)
8 | Cc1cc(C)c2nc(-c3cc4ccccc4o3)c(C)c(C(=O)O)c2c1 [Compound 7, 2-(1-Benzofuran-2-yl)-3,6,8-trimethylquinoline-4-carboxylic acid] | + (activity<50% of an CFTR amplifier (Compound A)+VX-809 (3 uM) with compound at 10 uM and Compound A at 3 uM)
9 | Cc1cc(C)c2nc(-c3csc4ccccc34)cc(C(=O)O)c2c1 [Compound 8, 2-(1-Benzothiophen-3-yl)-6,8-dimethylquinoline-4-carboxylic acid] | + (activity<50% of an CFTR amplifier (Compound A)+VX-809 (3 uM) with compound at 10 uM and Compound A at 3 uM)
10 | Cc1cc(C)c2nc(-c3oc4ccccc4c3C)cc(C(=O)O)c2c1 [Compound 9, 6,8-dimethyl-2-(3-methyl-1-benzofuran-2-yl)quinoline-4-carboxylic acid] | ++ (activity>50% of CFTR amplifier+VX-809 (3 uM) with compound at 10 uM and Compound A at 3 uM)
11 | Cc1ccc(C)c2c(C(=O)O)cc(-c3cc4ccccc4o3)nc12 [Compound 10, 2-(1-Benzofuran-2-yl)-5,8-dimethylquinoline-4-carboxylic acid] | + (activity<50% of an CFTR amplifier (Compound A)+VX-809 (3 uM) with compound at 10 uM and Compound A at 3 uM)
12 | COc1cc(C)c2nc(-c3cc4ccccc4o3)cc(C(=O)O)c2c1 [Compound 11, 2-(1-Benzofuran-2-yl)-6-methoxy-8-methylquinoline-4-carboxylic acid] | + (activity<50% of an CFTR amplifier (Compound A)+VX-809 (3 uM) with compound at 10 uM and Compound A at 3 uM)
13 | Cc1cc(Cl)cc2cc(C(=O)O)c(-c3cc4ccccc4o3)nc12 [Compound 12, 2-(1-Benzofuran-2-yl)-6-chloro-8-methylquinoline-3-carboxylic Acid] | + (activity<50% of an CFTR amplifier (Compound A)+VX-809 (3 uM) with compound at 10 uM and Compound A at 3 uM)
14 | Cc1ccc(C)c2c(C(=O)O)cc(-c3cc4ccccc4s3)nc12 [Compound 13, 2-(1-Benzothiophen-2-yl)-5,8-dimethylquinoline-4-carboxylic acid] | + (activity<50% of an CFTR amplifier (Compound A)+VX-809 (3 uM) with compound at 10 uM and Compound A at 3 uM)
15 | COc1ccc(C)c2nc(-c3cc4ccccc4o3)cc(C(=O)O)c12 [Compound 14, 2-(1-Benzofuran-2-yl)-5-methoxy-8-methylquinoline-4-carboxylic acid] | + (activity<50% of an CFTR amplifier (Compound A)+VX-809 (3 uM) with compound at 10 uM and Compound A at 3 uM)
16 | Cc1ccc(OCc2ccccc2)c2c(C(=O)O)cc(-c3cc4ccccc4o3)nc12 [Compound 15, 2-(1-Benzofuran-2-yl)-5-(benzyloxy)-8-methylquinoline-4-carboxylic acid] | ++ (activity>50% of CFTR amplifier+VX-809 (3 uM) with compound at 10 uM and Compound A at 3 uM)
17 | Cc1cc(Cl)cc2c(C(=O)O)cc(-c3cc4ccccc4o3)nc12 [Compound 16, 2-(1-Benzofuran-2-yl)-6-chloro-8-methylquinoline-4-carboxylic acid] | + (activity<50% of an CFTR amplifier (Compound A)+VX-809 (3 uM) with compound at 10 uM and Compound A at 3 uM)
18 | Cc1c(-c2cc(C(=O)O)c3cc(Cl)cc(C)c3n2)oc2ccccc12 [Compound 17, 6-Chloro-8-methyl-2-(3-methylbenzofuran-2-yl)quinoline-4-carboxylic acid] | ++ (activity>50% of CFTR amplifier+VX-809 (3 uM) with compound at 10 uM and Compound A at 3 uM)
19 | Cc1cc(C)c2nc(-c3sc4ccccc4c3C)cc(C(=O)O)c2c1 [Compound 18, 6,8-Dimethyl-2-(3-methylbenzo[b]thiophen-2-yl)quinoline-4-carboxylic acid] | + (activity<50% of an CFTR amplifier (Compound A)+VX-809 (3 uM) with compound at 10 uM and Compound A at 3 uM)
20 | Cc1c(-c2cc(C(=O)O)c3cc(C(F)(F)F)cc(C)c3n2)oc2ccccc12 [Compound 19, 8-Methyl-2-(3-methyl-1-benzofuran-2-yl)-6-(trifluoromethyl)quinoline-4-carboxylic acid] | ++ (activity>50% of CFTR amplifier+VX-809 (3 uM) with compound at 10 uM and Compound A at 3 uM)
21 | Cc1c(-c2cc(C(=O)O)c3cc(F)cc(C)c3n2)oc2ccccc12 [Compound 20, 6-Fluoro-8-methyl-2-(3-methylbenzofuran-2-yl)quinoline-4-carboxylic acid] | ++ (activity>50% of CFTR amplifier+VX-809 (3 uM) with compound at 10 uM and Compound A at 3 uM)
22 | Cc1c(-c2cc(C(=O)O)c3cc(Br)cc(C)c3n2)oc2ccccc12 [Compound 21, 6-bromo-8-methyl-2-(3-methyl-1-benzofuran-2-yl)quinoline-4-carboxylic acid] | ++ (activity>50% of CFTR amplifier+VX-809 (3 uM) with compound at 10 uM and Compound A at 3 uM)
23 | Cc1c(-c2cc(C(=O)O)c3cc(C#N)cc(C)c3n2)oc2ccccc12 [Compound 22, 6-Cyano-8-methyl-2-(3-methyl-1-benzofuran-2-yl)quinoline-4-carboxylic Acid] | + (activity<50% of an CFTR amplifier (Compound A)+VX-809 (3 uM) with compound at 10 uM and Compound A at 3 uM)
24 | COc1cc(C)c2nc(-c3oc4ccccc4c3C)cc(C(=O)O)c2c1 [Compound 23, 6-Methoxy-8-methyl-2-(3-methyl-1-benzofuran-2-yl)quinoline-4-carboxylic acid] | ++ (activity>50% of CFTR amplifier+VX-809 (3 uM) with compound at 10 uM and Compound A at 3 uM)
25 | Cc1c(-c2cc(C(=O)O)c3cc(OCc4ccccc4)cc(C)c3n2)oc2ccccc12 [Compound 24, 6-(Benzyloxy)-8-methyl-2-(3-methyl-1-benzofuran-2-yl)quinoline-4-carboxylic acid] | ++ (activity>50% of CFTR amplifier+VX-809 (3 uM) with compound at 10 uM and Compound A at 3 uM)
26 | Cc1c(-c2cc(C(=O)O)c3cc(OCCO)cc(C)c3n2)oc2ccccc12 [Compound 25, 6-(2-Hydroxyethoxy)-8-methyl-2-(3-methyl-1-benzofuran-2-yl)quinoline-4-carboxylic Acid] | + (activity<50% of an CFTR amplifier (Compound A)+VX-809 (3 uM) with compound at 10 uM and Compound A at 3 uM)
27 | CCc1cc(C)c2nc(-c3oc4ccccc4c3C)cc(C(=O)O)c2c1 [Compound 26, 6-Ethyl-8-methyl-2-(3-methyl-1-benzofuran-2-yl)quinoline-4-carboxylic Acid] | ++ (activity>50% of CFTR amplifier+VX-809 (3 uM) with compound at 10 uM and Compound A at 3 uM)
28 | Cc1c(-c2cc(C(=O)O)c3cc(C(C)(C)C)cc(C)c3n2)oc2ccccc12 [Compound 27, 6-tert-Butyl-8-methyl-2-(3-methyl-1-benzofuran-2-yl)quinoline-4-carboxylic acid] | ++ (activity>50% of CFTR amplifier+VX-809 (3 uM) with compound at 10 uM and Compound A at 3 uM)
